In ChEMBL document CHEMBL4627251, “Identification of potent pyrazole based APELIN receptor (APJ) agonists” (Bioorg Med Chem, 2020):

Columns and labels:
[1] = target: T1, Type-1 angiotensin II receptor (Homo sapiens, UniProt P30556); experiment: Agonist activity at human AGTR1 stably expressed in CHO cells assessed as increase in intracellular calcium mobilization measured at 1 sec intervals for 90 sec by calcium 5 dye based FLIPR assay; format: functional, cell-based
T1 sequence (P30556 whole entry): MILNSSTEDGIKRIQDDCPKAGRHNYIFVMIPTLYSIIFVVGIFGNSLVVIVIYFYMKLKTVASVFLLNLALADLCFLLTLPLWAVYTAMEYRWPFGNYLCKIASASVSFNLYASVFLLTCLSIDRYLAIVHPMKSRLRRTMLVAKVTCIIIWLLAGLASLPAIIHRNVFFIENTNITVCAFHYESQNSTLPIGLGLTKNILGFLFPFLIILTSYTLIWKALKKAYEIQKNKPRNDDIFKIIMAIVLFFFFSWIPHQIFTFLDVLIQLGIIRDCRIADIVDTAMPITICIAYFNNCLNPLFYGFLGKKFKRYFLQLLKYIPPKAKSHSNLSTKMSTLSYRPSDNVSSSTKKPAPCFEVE

Apelin receptor [2] = target: T2, Apelin receptor (Homo sapiens, UniProt P35414)
T2 sequence (P35414 whole entry): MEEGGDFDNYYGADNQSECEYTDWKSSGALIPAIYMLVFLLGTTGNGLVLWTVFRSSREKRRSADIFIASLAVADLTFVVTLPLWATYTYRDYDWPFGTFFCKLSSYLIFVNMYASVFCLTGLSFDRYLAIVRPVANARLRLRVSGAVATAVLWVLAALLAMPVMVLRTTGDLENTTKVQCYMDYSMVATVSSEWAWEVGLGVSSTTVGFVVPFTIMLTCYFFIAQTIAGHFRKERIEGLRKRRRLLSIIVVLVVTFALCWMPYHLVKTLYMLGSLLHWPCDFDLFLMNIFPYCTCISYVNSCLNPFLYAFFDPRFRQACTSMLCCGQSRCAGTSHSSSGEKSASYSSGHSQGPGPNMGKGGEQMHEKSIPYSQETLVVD
Description: Agonist activity at human APJ receptor stably expressed in CHO cells co-expressing Galphaq16 assessed as increase in intracellular calcium mobilization measured at 1 sec intervals for 90 secs by calcium 5 dye based FLIPR assay

Apelin receptor [3] = target: T2, Apelin receptor; remark: listed apart in the source
Description: Agonist activity at human APJ receptor stably expressed in CHOK1 cells assessed as induction of beta-arrestin 2 recruitment incubated for 90 mins by PathHunter assay

Apelin receptor [4] = target: T2, Apelin receptor; remark: listed apart in the source
Description: Agonist activity at human APJ receptor stably expressed in CHO cells assessed as inhibition of forskolin-induced cAMP accumulation measured after 30 mins by Eu-cAMP tracer based TR-FRET assay

Row | Compound | EC50 [1] [µM] | further results
1 | COc1cccc(OC)c1-c1cc(C(=O)N[C@@H](CCC2CCCCC2)CC(=O)O)nn1-c1ccc(F)cc1 | > 10 | 
2 | COc1cccc(OC)c1-c1cc(C(=O)N[C@@H](CCC2CCCCC2)CC(=O)NC2CCC2)nn1CC(C)C | > 10 | 
3 | COc1cccc(OC)c1-c1cc(C(=O)N[C@@H](CCc2ccccc2)CC(=O)O)nn1CC(C)C |  | EC50 (Apelin receptor [2]): > 10 µM; EC50 (Apelin receptor [3]): > 10 µM; EC50 (Apelin receptor [4]): > 10 µM
4 | COc1cccc(OC)c1-c1cc(C(=O)N[C@@H](CCc2ccccc2)CC(=O)NC2CCC2)nn1CC(C)C | > 10 | 
5 | COC(=O)CN(C)C(=O)[C@H](CCc1ccccc1)NC(=O)c1cc(-c2c(OC)cccc2OC)n(CC(C)C)n1 | > 10 | 
6 | CC[C@@H](O)CNC(=O)C[C@H](CCC1CCCCC1)NC(=O)c1cc(-c2c(OC)cccc2OC)n(CC(C)C)n1 | > 10 | 
7 | CCC(=O)CNC(=O)[C@H](CCc1ccccc1)NC(=O)c1cc(-c2c(OC)cccc2OC)n(CC(C)C)n1 | > 10 | 
8 | CCCn1nc(C(=O)N[C@@H](CCC2CCCCC2)CC(=O)NC2CCC2)cc1-c1c(OC)cccc1OC | > 10 | 
9 | COc1cccc(OC)c1-c1cc(C(=O)N[C@@H](CCC2CCCCC2)CC(=O)NC2CCC2)nn1C1CCCCC1 | > 10 | 
10 | CCC(=O)CNC(=O)C[C@H](CCC1CCCCC1)NC(=O)c1cc(-c2c(OC)cccc2OC)n(CC(C)C)n1 | > 10 | 
11 | COc1cccc(OC)c1-c1cc(C(=O)N[C@@H](CCC2CCCCC2)CC(=O)NC2CCC2)nn1C1CCCC1 | > 10 | 
12 | CCC(O)CNC(=O)C[C@H](CCC1CCCCC1)NC(=O)c1cc(-c2c(OC)cccc2OC)n(CC(C)C)n1 (some centres undefined) | > 10 | 
